Source: patent US20190223483A1, “SENSORY MODIFIER COMPOUNDS” (CARGILL, INCORPORATED, priority 2017, published 2019)
“Also recorded” adds a separate entry of the source.

How the values were obtained:
[1] = Roundtable assessment of spikey/rounded sweetness quality (scale 0 to 3); format: in vivo; design: key: 0=none; 1=mostly spikey, some rounded; 2=mostly rounded, some spikey; 3=rounded
Description: (§1) For other sweetness attributes, the solutions were tested by a panel of at least four individuals that are highly-trained in tasting steviol glycoside solutions. The highly-trained panelists used a roundtable methodology to assess each sweetness attribute. To test each solution, the highly-trained panelists dispensed approximately 2 mL of each solution into their own mouths by transfer pipet, dispersed the solution by moving their tongues, and recorded a value for the particular sweetness attribute being tested. Between tasting solutions, the panelists were able to cleanse their palates with water. For each sweetness attribute, the panelist agreed on a descriptive scale with relative intensities assigned for each sweetness attribute and then recorded the values for each sweetness attribute against this. For example, this roundtable assessment of sweetness linger assigned a scale of 0 to 6 with a score of 0 indicating no sweetness linger and a score of 6 indicating extreme sweetness linger. Roundtable assessment of sweetness linger assigned a scale of 0 to 6 with a score of 0 indicating no sweetness linger and a score of 6 indicating extreme sweetness linger (0=none, 1=trace, 2=slight, 3=moderate, 4=definite, 5=strong, 6=extreme). Roundtable assessment of rounded assigned a scale of 0 to 3 with a score of 0 indicating spikey and a score of 3 indicating desirable rounded (0=none, 1=mostly spikey, some rounded, 2=mostly rounded, some spikey, 3=rounded). Roundtable assessment of mouthfeel assigned a scale of 0 to 2 with a score of 0 indicating water and a score of 2 indicating syrupy (0=water, 1=sucrosey, 2=syrupy). Roundtable assessment of bitterness assigned a scale of 0 to 6 with a score of 0 indicating no bitterness and a score of 6 indicating extreme sweetness linger (0=none, 1=trace, 2=slight, 3=moderate, 4=definite, 5=strong, 6=extreme). Roundtable assessment of off tastes assigned a scale of 0 to 6 with a score of 0 indicating no bitterness and a score of 6 indicating extreme off tastes (0=none, 1=trace, 2=slight, 3=moderate, 4=definite, 5=strong, 6=extreme).
A series of assays were carried out to characterize a sweetness quality of a not preferred spikey quality (a zero value) to a more desirable rounded quality (a 3 value) of steviol glycoside compositions with sensory modifier compound using the roundtable methodology described in Example 1. Rounded quality has the sensory experience of being more like sucrose. […] Solutions of steviol glycosides and sensory modifier compound were prepared at increasing ratios of sensory modifier to steviol glycoside by weight. The steviol glycosides were RebA (4 glycoside groups), RebD (5 glycoside groups), RebM (6 glycoside groups), and OPS1-5(7 glycoside groups) and the sensory modifier compound was monocaffeoylquinic and dicaffeoylquinic acids prepared from yerba mate. […] The solutions were tested for spikey/rounded.

[2] = Roundtable assessment of off taste (scale 0 to 6); format: in vivo; design: key to Off taste / off taste score: 0 = none; 1 = trace/faint; 2 = slight; 3 = moderate; 4 = definite; 5 = strong; 6 = extreme
Description: as §1
A series of assays were carried out to characterize off taste (0=none, 1=trace/faint, 2=slight, 3=moderate, 4=definite, 5=strong, 6=extreme) of steviol glycoside compositions with sensory modifier compound using the roundtable methodology described in Example 1. […] Solutions of steviol glycosides and sensory modifier compound were prepared at increasing ratios of sensory modifier to steviol glycoside by weight. The steviol glycosides were RebA (4 glycoside groups), RebD (5 glycoside groups), RebM (6 glycoside groups), and OPS1-5(7 glycoside groups) and the sensory modifier compound was monocaffeoylquinic and dicaffeoylquinic acids prepared from yerba mate. The concentration of steviol glycosides was 700 ppm in each solution. The solutions were tested for off taste. Off taste included astringency, metallic, powdery, numbing, and vapory attributes.

[3] = steviol glycoside 700 ppm + yerba mate mono/dicaffeoylquinic acids 270 ppm
[4] = steviol glycoside 700 ppm, sensory modifier 0 ppm
[5] = RebM 700 ppm + rosmarinic acid 195 ppm
[6] = RebM 700 ppm + rosmarinic acid 586 ppm
[7] = steviol glycoside 700 ppm + yerba mate mono/dicaffeoylquinic acids 236 ppm
[8] = steviol glycoside 700 ppm + yerba mate mono/dicaffeoylquinic acids 300 ppm
[9] = steviol glycoside 700 ppm + yerba mate mono/dicaffeoylquinic acids 400 ppm
[10] = steviol glycoside 700 ppm + yerba mate mono/dicaffeoylquinic acids 472 ppm
[11] = steviol glycoside 700 ppm + yerba mate mono/dicaffeoylquinic acids 500 ppm
[12] = steviol glycoside 700 ppm + yerba mate mono/dicaffeoylquinic acids 600 ppm
[13] = steviol glycoside 700 ppm + yerba mate mono/dicaffeoylquinic acids 700 ppm
[14] = steviol glycoside 700 ppm + yerba mate mono/dicaffeoylquinic acids 708 ppm
[15] = steviol glycoside 700 ppm + yerba mate mono/dicaffeoylquinic acids 800 ppm
[16] = steviol glycoside 700 ppm + yerba mate mono/dicaffeoylquinic acids 630 ppm
[17] = steviol glycoside 700 ppm + yerba mate mono/dicaffeoylquinic acids 946 ppm
[18] = steviol glycoside 700 ppm + yerba mate mono/dicaffeoylquinic acids […]

C=C1C[C@@]23CC[C@H]4[C@@](C)(CCC[C@@]4(C)C(=O)O[C@@H]4O[C@H](CO)[C@@H](O)[C@H](O)[C@H]4O[C@@H]4O[C@H](CO)[C@@H](O)[C@H](O)[C@H]4O)[C@@H]2CC[C@]1(O[C@@H]1O[C@H](CO)[C@@H](O)[C@H](O[C@@H]2O[C@H](CO)[C@@H](O)[C@H](O)[C@H]2O)[C@H]1O[C@@H]1O[C@H](CO)[C@@H](O)[C@H](O)[C@H]1O)C3 [RebD, Rebaudioside D]
Spikey/rounded (spikey = 0) (rounded = 3) [1, 3]: 1
Spikey/rounded (spikey = 0) (rounded = 3) ([1]; steviol glycoside 700 ppm + yerba mate mono/dicaffeoylquinic acids 540 ppm): 3
Spikey/rounded (spikey = 0) (rounded = 3) ([1]; steviol glycoside 700 ppm + yerba mate mono/dicaffeoylquinic acids 810 ppm): 3
Spikey/rounded (spikey = 0) (rounded = 3) [1, 4]: 2
Off taste [2, 3]: 2
Off taste [2, 4]: 2

C=C1C[C@@]23CC[C@H]4[C@@](C)(CCC[C@@]4(C)C(=O)O[C@@H]4O[C@H](CO)[C@@H](O)[C@H](O[C@@H]5O[C@H](CO)[C@@H](O)[C@H](O)[C@H]5O)[C@H]4O[C@@H]4O[C@H](CO)[C@@H](O)[C@H](O)[C@H]4O)[C@@H]2CC[C@]1(O[C@@H]1O[C@H](CO)[C@@H](O)[C@H](O[C@@H]2O[C@H](CO)[C@@H](O)[C@H](O)[C@H]2O)[C@H]1O[C@@H]1O[C@H](CO)[C@@H](O)[C@H](O)[C@H]1O)C3 [RebM, Rebaudioside M]
Spikey/rounded (spikey = 0) (rounded = 3) ([1]; RebM 100 ppm + yerba mate mono/dicaffeoylquinic acids 100 ppm (1:1)): 0
Spikey/rounded (spikey = 0) (rounded = 3) ([1]; RebM 200 ppm + yerba mate mono/dicaffeoylquinic acids 200 ppm (1:1)): 0
Spikey/rounded (spikey = 0) (rounded = 3) ([1]; RebM 300 ppm + yerba mate mono/dicaffeoylquinic acids 300 ppm (1:1)): 1
Spikey/rounded (spikey = 0) (rounded = 3) ([1]; RebM 400 ppm + yerba mate mono/dicaffeoylquinic acids 400 ppm (1:1)): 1
Spikey/rounded (spikey = 0) (rounded = 3) ([1]; RebM 500 ppm + yerba mate mono/dicaffeoylquinic acids 500 ppm (1:1)): 1
Spikey/rounded (spikey = 0) (rounded = 3) ([1]; RebM 600 ppm + yerba mate mono/dicaffeoylquinic acids 600 ppm (1:1)): 1
Spikey/rounded (spikey = 0) (rounded = 3) [1, 5]: 0
Spikey/rounded (spikey = 0) (rounded = 3) ([1]; RebM 700 ppm + rosmarinic acid 391 ppm): 2
Spikey/rounded (spikey = 0) (rounded = 3) [1, 6]: 3
Spikey/rounded (spikey = 0) (rounded = 3) ([1]; RebM 700 ppm + yerba mate mono/dicaffeoylquinic acids 700 ppm (1:1)): 2
rounded quality ([1]; RebM 700 ppm, above 200 ppm sensory modifier): 2
Spikey/rounded (spikey = 0) (rounded = 3) ([1]; RebM 800 ppm + yerba mate mono/dicaffeoylquinic acids 800 ppm (1:1)): 2
Spikey/rounded (spikey = 0) (rounded = 3) ([1]; RebM 900 ppm + yerba mate mono/dicaffeoylquinic acids 900 ppm (1:1)): 2
Spikey/rounded (spikey = 0) (rounded = 3) ([1]; RebM 1000 ppm + yerba mate mono/dicaffeoylquinic acids 1000 ppm (1:1)): 2
Spikey/rounded (spikey = 0) (rounded = 3) ([1]; RebM 1100 ppm + yerba mate mono/dicaffeoylquinic acids 1100 ppm (1:1)): 2
Spikey/rounded (spikey = 0) (rounded = 3) ([1]; RebM 1200 ppm + yerba mate mono/dicaffeoylquinic acids 1200 ppm (1:1)): 2
Spikey/rounded (spikey = 0) (rounded = 3) ([1]; RebM 1300 ppm + yerba mate mono/dicaffeoylquinic acids 1300 ppm (1:1)): 2
Spikey/rounded (spikey = 0) (rounded = 3) ([1]; RebM 1400 ppm + yerba mate mono/dicaffeoylquinic acids 1400 ppm (1:1)): 2
Spikey/rounded (spikey = 0) (rounded = 3) ([1]; RebM 1500 ppm + yerba mate mono/dicaffeoylquinic acids 1500 ppm (1:1)): 2
Spikey/rounded (spikey = 0) (rounded = 3) ([1]; RebM 1600 ppm + yerba mate mono/dicaffeoylquinic acids 1600 ppm (1:1)): 2
rounded quality ([1]; RebM solution with 300 ppm sensory modifier): 3
Spikey/rounded (spikey = 0) (rounded = 3) [1, 7]: 2
Spikey/rounded (spikey = 0) (rounded = 3) [1, 8]: 2
Spikey/rounded (spikey = 0) (rounded = 3) [1, 9]: 3
Spikey/rounded (spikey = 0) (rounded = 3) [1, 10]: 3
Spikey/rounded (spikey = 0) (rounded = 3) [1, 11]: 3
Spikey/rounded (spikey = 0) (rounded = 3) [1, 12]: 2
Spikey/rounded (spikey = 0) (rounded = 3) [1, 13]: 3
Spikey/rounded (spikey = 0) (rounded = 3) [1, 14]: 3
Spikey/rounded (spikey = 0) (rounded = 3) [1, 15]: 3
Spikey/rounded (spikey = 0) (rounded = 3) [1, 4]: 0
Off taste ([2]; RebM 700 ppm + cichoric acid (tartaric backbone) […]): 0
Off taste [2, 5]: 0
Off taste [2, 6]: 0
off taste ([2]; RebM 700 ppm, about 200 ppm and above of sensory modifier): not perceptible; also recorded: between slight and none
off taste ([2]; quinic, tartaric or 3-(3,4-dihydroxyphenyl)lactic acid backbone modifier above 200 ppm): none
Off taste [2, 7]: 0
Off taste [2, 8]: 0
Off taste [2, 9]: 2
Off taste [2, 10]: 0
Off taste [2, 11]: 0
Off taste [2, 12]: 2
Off taste [2, 13]: 0
Off taste [2, 14]: 0
Off taste [2, 15]: 2
Off taste [2, 4]: 5

C=C1C[C@@]23CC[C@H]4[C@@](C)(CCC[C@@]4(C)C(=O)O[C@@H]4O[C@H](CO)[C@@H](O)[C@H](O)[C@H]4O)[C@@H]2CC[C@]1(O[C@@H]1O[C@H](CO)[C@@H](O)[C@H](O[C@@H]2O[C@H](CO)[C@@H](O)[C@H](O)[C@H]2O)[C@H]1O[C@@H]1O[C@H](CO)[C@@H](O)[C@H](O)[C@H]1O)C3 [RebA, Rebaudioside A]
Spikey/rounded (spikey = 0) (rounded = 3) [1, 16]: Not observed
Spikey/rounded (spikey = 0) (rounded = 3) [1, 17]: Not observed
Spikey/rounded (spikey = 0) (rounded = 3) [1, 18]: Not observed
Spikey/rounded (spikey = 0) (rounded = 3) [1, 4]: 0
off taste score ([2]; RebA 700 ppm, higher concentrations of sensory modifier): 2
Off taste [2, 16]: 2
Off taste [2, 17]: 2
Off taste [2, 18]: 2
Off taste [2, 4]: 6
